Measured values taken from US7531554B2, “4-oxoquinoline compound and use thereof as HIV integrase inhibitor” (Japan Tobacco Inc., priority 2004, dated 2009).

Legend:
[1] = biological target: T1, HIV integrase (Human immunodeficiency virus type 1 group M subtype B, UniProt P12497, F1332H); experiment: Determination of enzyme (HIV integrase) inhibitory activity; type: biochemical; settings: recombinant integrase protein (F185H), donor DNA/target DNA, absorbance at 450 nm
T1 construct: HIV integrase full length gene (J. Virol., 67, 425-437 (1993)) in which phenylalanine at codon 185 was substituted by histidine; made in house; host or cells: Escherichia coli BL21(DE3)
Outline: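 Full-length HIV integrase bearing F185H mutation, E. coli-expressed and purified, preincubated with compound on plate-bound biotinylated donor DNA for 60 min at 37 °C; digoxigenin-labelled target DNA then added for 10 min. Strand transfer detected by peroxidase anti-digoxigenin ELISA at 450 nm; IC50 from inhibition versus no-compound and no-enzyme controls.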

Row | Compound | melting point [°C] | IC50 [1] [nM]
1 | O=C(O)c1cn(CCO)c2ccc(Cc3cccc(Cl)c3Cl)cc2c1=O | 247 to 249 | –
2 | CC(C)[C@@H](CO)n1cc(C(=O)O)c(=O)c2cc(Cc3cccc(Cl)c3F)c(OCc3ccncc3)cc21 [Example 4-60, 6-(3-chloro-2-fluorobenzyl)-1-((1S)-1-(hydroxymethyl)-2-methylpropyl)-4-oxo-7-(pyridin-4-ylmethoxy)-1,4-dihydroquinoline-3-carboxylic acid] | – | 4.3
3 | CC(C)[C@@H](CO)n1cc(C(=O)O)c(=O)c2cc(Cc3cccc(Cl)c3F)cc(OCc3ccccc3)c21 [Example 3-9, 8-benzyloxy-6-(3-chloro-2-fluorobenzyl)-1-((1S)-1-(hydroxymethyl)-2-methylpropyl)-4-oxo-1,4-dihydroquinoline-3-carboxylic acid] | – | 5
4 | CC(C)[C@@H](CO)n1cc(C(=O)O)c(=O)c2cc(Cc3cccc(Cl)c3F)c(O[C@H]3CCOC3)cc21 [Example 4-47, 6-(3-chloro-2-fluorobenzyl)-1-((1S)-1-(hydroxymethyl)-2-methylpropyl)-4-oxo-7-((3S)-tetrahydrofuran-3-yloxy)-1,4-dihydroquinoline-3-carboxylic acid] | – | 6.6
5 | O=C(O)c1cn2c3c(cc(Cc4cccc(Cl)c4F)cc3c1=O)OCC2CO (centres unmarked) [Example 5-2, 8-(3-chloro-2-fluorobenzyl)-3-hydroxymethyl-6-oxo-2,3-dihydro-6H-1-oxa-3a-aza-phenalene-5-carboxylic acid] | – | 47
6 | CC(C)[C@@H](CO)n1cc(C(=O)O)c(=O)c2cc(Cc3cccc(Cl)c3F)c(OC3CCN(C)CC3)cc21 [Example 4-14, 6-(3-chloro-2-fluorobenzyl)-1-((1S)-1-(hydroxymethyl)-2-methylpropyl)-7-(1-methylpiperidin-4-yloxy)-4-oxo-1,4-dihydroquinoline-3-carboxylic acid] | – | 5.4
7 | CC(C)[C@@H](CO)n1cc(C(=O)O)c(=O)c2cc(Cc3cccc(Cl)c3F)c(N3CCN(C)CC3)cc21 [Example 4-10, 6-(3-chloro-2-fluorobenzyl)-1-((1S)-1-(hydroxymethyl)-2-methylpropyl)-7-(4-methylpiperazin-1-yl)-4-oxo-1,4-dihydroquinoline-3-carboxylic acid] | – | 6.2
8 | CCN1CCN(c2cc3c(cc2Cc2cccc(Cl)c2F)c(=O)c(C(=O)O)cn3[C@H](CO)C(C)C)CC1 [Example 4-15, 6-(3-chloro-2-fluorobenzyl)-7-(4-ethylpiperazin-1-yl)-1-((1S)-1-(hydroxymethyl)-2-methylpropyl)-4-oxo-1,4-dihydroquinoline-3-carboxylic acid] | – | 11
9 | CC(C)[C@@H](CO)n1cc(C(=O)O)c(=O)c2cc(Cc3cccc(Cl)c3F)c(O)cc21 [Example 7-5, 6-(3-chloro-2-fluorobenzyl)-7-hydroxy-1-((1S)-1-(hydroxymethyl)-2-methylpropyl)-4-oxo-1,4-dihydroquinoline-3-carboxylic acid] | – | 3.2
10 | CC(C)[C@H]1COc2cc(Cc3cccc(Cl)c3F)cc3c(=O)c(C(=O)O)cn1c23 [Example 5-1, (3S)-8-(3-chloro-2-fluorobenzyl)-3-isopropyl-6-oxo-2,3-dihydro-6H-1-oxa-3a-aza-phenalene-5-carboxylic acid] | – | 160
11 | COc1cc2c(cc1Cc1ccc(F)c(Cl)c1F)c(=O)c(C(=O)O)cn2[C@H](CO)C(C)C [Example 1-5, 6-(3-chloro-2,4-difluorobenzyl)-1-((1S)-1-(hydroxymethyl)-2-methylpropyl)-7-methoxy-4-oxo-1,4-dihydroquinoline-3-carboxylic acid] | – | 3.3
12 | CS(=O)(=O)C[C@@H](CO)n1cc(C(=O)O)c(=O)c2cc(Cc3cccc(Cl)c3F)ccc21 [Example 2-8, 6-(3-chloro-2-fluorobenzyl)-1-((1R)-1-(hydroxymethyl)-2-mesylethyl)-4-oxo-1,4-dihydroquinoline-3-carboxylic acid] | – | 20
13 | CC(=O)NCCOc1cc2c(cc1Cc1cccc(Cl)c1F)c(=O)c(C(=O)O)cn2[C@H](CO)C(C)C [Example 4-41, 7-(2-(acetylamino)ethoxy)-6-(3-chloro-2-fluorobenzyl)-1-((1S)-1-(hydroxymethyl)-2-methylpropyl)-4-oxo-1,4-dihydroquinoline-3-carboxylic acid] | – | 4.5
14 | COCCCOc1cc(Cc2cccc(Cl)c2F)cc2c(=O)c(C(=O)O)cn([C@H](CO)C(C)C)c12 [Example 3-7, 6-(3-chloro-2-fluorobenzyl)-1-((1S)-1-(hydroxymethyl)-2-methylpropyl)-8-(3-methoxypropoxy)-4-oxo-1,4-dihydroquinoline-3-carboxylic acid] | – | 4.7
15 | CSC[C@@H](CO)n1cc(C(=O)O)c(=O)c2cc(Cc3cccc(Cl)c3F)ccc21 [Example 2-7, 6-(3-chloro-2-fluorobenzyl)-1-((1R)-1-(hydroxymethyl)-2-(methylthio)ethyl)-4-oxo-1,4-dihydroquinoline-3-carboxylic acid] | – | 8.1
16 | COc1cc2c(cc1Cc1cccc(Cl)c1F)c(=O)c(C(=O)O)cn2[C@H](CO)CS(C)(=O)=O [Example 2-4, 6-(3-chloro-2-fluorobenzyl)-1-((1R)-1-(hydroxymethyl)-2-mesylethyl)-7-methoxy-4-oxo-1,4-dihydroquinoline-3-carboxylic acid] | – | 10
17 | CS(=O)(=O)CC[C@@H](CO)n1cc(C(=O)O)c(=O)c2cc(Cc3cccc(Cl)c3F)ccc21 [Example 2-17, 6-(3-chloro-2-fluorobenzyl)-1-((1S)-1-(hydroxymethyl)-3-mesylpropyl)-4-oxo-1,4-dihydroquinoline-3-carboxylic acid] | – | 14
18 | CC(C)[C@@H](CO)n1cc(C(=O)O)c(=O)c2cc(Cc3cccc(Cl)c3F)cc(OCCO)c21 [Example 3-1, 6-(3-chloro-2-fluorobenzyl)-8-(2-hydroxyethoxy)-1-((1S)-1-(hydroxymethyl)-2-methylpropyl)-4-oxo-1,4-dihydroquinoline-3-carboxylic acid] | – | 5.1
19 | COc1cc2c(cc1Cc1cc(F)c(F)c(Cl)c1F)c(=O)c(C(=O)O)cn2[C@H](CO)C(C)C [Example 1-7, 6-(3-chloro-2,4,5-trifluorobenzyl)-1-((1S)-1-(hydroxymethyl)-2-methylpropyl)-7-methoxy-4-oxo-1,4-dihydroquinoline-3-carboxylic acid] | – | 5.5
20 | COc1cc2c(cc1Cc1cccc(Cl)c1F)c(=O)c(C(=O)O)cn2[C@H](CO)CCSC [Example 2-12, 6-(3-chloro-2-fluorobenzyl)-1-((1S)-1-(hydroxymethyl)-3-(methylthio)propyl)-7-methoxy-4-oxo-1,4-dihydroquinoline-3-carboxylic acid] | – | 5.7
21 | COc1cc2c(cc1Cc1ccc(F)c(Cl)c1)c(=O)c(C(=O)O)cn2[C@H](CO)C(C)C [Example 1-1, 6-(3-chloro-4-fluorobenzyl)-1-((1S)-1-(hydroxymethyl)-2-methylpropyl)-7-methoxy-4-oxo-1,4-dihydroquinoline-3-carboxylic acid] | – | 19
22 | CC(C)[C@@H](CO)n1cc(C(=O)O)c(=O)c2cc(Cc3cccc(Cl)c3F)c(OC3CCOCC3)cc21 [Example 4-36, 6-(3-chloro-2-fluorobenzyl)-1-((1S)-1-(hydroxymethyl)-2-methylpropyl)-4-oxo-7-(tetrahydropyran-4-yloxy)-1,4-dihydroquinoline-3-carboxylic acid] | – | 5.4
23 | COCCCOc1cc2c(cc1Cc1cccc(Cl)c1F)c(=O)c(C(=O)O)cn2[C@H](CO)C(C)C [Example 4-8, 6-(3-chloro-2-fluorobenzyl)-1-((1S)-1-(hydroxymethyl)-2-methylpropyl)-7-(3-methoxypropoxy)-4-oxo-1,4-dihydroquinoline-3-carboxylic acid] | – | 4.7
